Measurements reported in US4068070A, “α-Cyanoamine compounds and a process for producing the same” (Fuji Chemical Industry Co., Ltd., priority 1974, dated 1978).

What was measured:
Type in all cases: in vivo, mongrel adult dogs
[1] = system: arterial mean blood pressure; test: Effects on arterial mean blood pressure
In short: (§1)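 Adult mongrel dogs of both sexes were anesthetized with pentobarbital and thoracotomized. Test agents, suspended or dissolved in 0.2% CMC, pH 6 HCl solution or saline, were injected intravenously into the brachial vein. Hemodynamic and coronary sinus parameters were then recorded.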

aortic blood flow = test: Effects on aortic blood flow
In short: as §1

coronary sinus out flow = test: Effects on coronary sinus out flow
In short: as §1

[2] = system: coronary sinus oxygen tension; test: Effects on coronary sinus oxygen tension
In short: as §1

heart rate = test: Effects on heart rate
In short: as §1

Compound: COc1ccc(C(C#N)N2CCCN(CC=Cc3ccccc3)CC2)cc1OC (centres unmarked) [Compound E]
- Changes (%) of basal values, arterial mean blood pressure ([1]; 2.0 mg/kg i.v., 1 min): -1.5%
- Changes (%) of basal values, arterial mean blood pressure ([1]; 2.0 mg/kg i.v., 5 min): -3.3%
- Changes (%) of basal values, arterial mean blood pressure ([1]; 2.0 mg/kg i.v., 10 min): -2.1%
- Changes (%) of basal values, arterial mean blood pressure ([1]; 2.0 mg/kg i.v., 20 min): -1.0%
- Changes (%) of basal values, arterial mean blood pressure ([1]; 2.0 mg/kg i.v., 30 min): -0.3%
- Changes (%) of basal values, arterial mean blood pressure ([1]; 2.0 mg/kg i.v., 40 min): 0%
- Changes (%) of basal values, arterial mean blood pressure ([1]; 2.0 mg/kg i.v., imm.): -7.4%
- Changes (%) of basal values, arterial mean blood pressure ([1]; 6.0 mg/kg i.v., 1 min): -3.8%
- Changes (%) of basal values, arterial mean blood pressure ([1]; 6.0 mg/kg i.v., 5 min): -6.0%
- Changes (%) of basal values, arterial mean blood pressure ([1]; 6.0 mg/kg i.v., 10 min): -10.9%
- Changes (%) of basal values, arterial mean blood pressure ([1]; 6.0 mg/kg i.v., 20 min): -8.2%
- Changes (%) of basal values, arterial mean blood pressure ([1]; 6.0 mg/kg i.v., 30 min): -3.8%
- Changes (%) of basal values, arterial mean blood pressure ([1]; 6.0 mg/kg i.v., 40 min): -2.8%
- Changes (%) of basal values, arterial mean blood pressure ([1]; 6.0 mg/kg i.v., imm.): -22.6%
- Changes (%) of basal values, arterial mean blood pressure ([1]; 20.0 mg/kg i.v., 1 min): -8.3%
- Changes (%) of basal values, arterial mean blood pressure ([1]; 20.0 mg/kg i.v., 5 min): -15.9%
- Changes (%) of basal values, arterial mean blood pressure ([1]; 20.0 mg/kg i.v., 10 min): -21.2%
- Changes (%) of basal values, arterial mean blood pressure ([1]; 20.0 mg/kg i.v., 20 min): -19.9%
- Changes (%) of basal values, arterial mean blood pressure ([1]; 20.0 mg/kg i.v., 30 min): -16.2%
- Changes (%) of basal values, arterial mean blood pressure ([1]; 20.0 mg/kg i.v., 40 min): -11.4%
- Changes (%) of basal values, arterial mean blood pressure ([1]; 20.0 mg/kg i.v., imm.): -29.9%
- Effects on arterial mean blood pressure (in words) ([1]; i.v., anesthetized dogs): hypotensive effects being proportioned to their doses which were of long duration
- Changes (%) of basal values, aortic blood flow (aortic blood flow; 2.0 mg/kg i.v., 1 min): +3.6%
- Changes (%) of basal values, aortic blood flow (aortic blood flow; 2.0 mg/kg i.v., 5 min): +0.8%
- Changes (%) of basal values, aortic blood flow (aortic blood flow; 2.0 mg/kg i.v., 10 min): 0%
- Changes (%) of basal values, aortic blood flow (aortic blood flow; 2.0 mg/kg i.v., 20 min): 0%
- Changes (%) of basal values, aortic blood flow (aortic blood flow; 2.0 mg/kg i.v., 30 min): 0%
- Changes (%) of basal values, aortic blood flow (aortic blood flow; 2.0 mg/kg i.v., 40 min): 0%
- Changes (%) of basal values, aortic blood flow (aortic blood flow; 2.0 mg/kg i.v., imm.): +9.9%
- Changes (%) of basal values, aortic blood flow (aortic blood flow; 6.0 mg/kg i.v., 1 min): +5.8%
- Changes (%) of basal values, aortic blood flow (aortic blood flow; 6.0 mg/kg i.v., 5 min): 0%
- Changes (%) of basal values, aortic blood flow (aortic blood flow; 6.0 mg/kg i.v., 10 min): -3.7%
- Changes (%) of basal values, aortic blood flow (aortic blood flow; 6.0 mg/kg i.v., 20 min): -2.8%
- Changes (%) of basal values, aortic blood flow (aortic blood flow; 6.0 mg/kg i.v., 30 min): -1.5%
- Changes (%) of basal values, aortic blood flow (aortic blood flow; 6.0 mg/kg i.v., 40 min): -0.3%
- Changes (%) of basal values, aortic blood flow (aortic blood flow; 6.0 mg/kg i.v., imm.): +11.7%
- Changes (%) of basal values, aortic blood flow (aortic blood flow; 20.0 mg/kg i.v., 1 min): +7.6%
- Changes (%) of basal values, aortic blood flow (aortic blood flow; 20.0 mg/kg i.v., 5 min): -4.8%
- Changes (%) of basal values, aortic blood flow (aortic blood flow; 20.0 mg/kg i.v., 10 min): -12.4%
- Changes (%) of basal values, aortic blood flow (aortic blood flow; 20.0 mg/kg i.v., 20 min): -10.5%
- Changes (%) of basal values, aortic blood flow (aortic blood flow; 20.0 mg/kg i.v., 30 min): -9.5%
- Changes (%) of basal values, aortic blood flow (aortic blood flow; 20.0 mg/kg i.v., 40 min): -7.6%
- Changes (%) of basal values, aortic blood flow (aortic blood flow; 20.0 mg/kg i.v., imm.): +16.3%
- Effects on aortic blood flow (in words) (aortic blood flow; i.v., anesthetized dogs): an increase in blood flow immediately after administration, followed by a decrease in blood flow
- Changes(%) of basal values, coronary sinus out flow (coronary sinus out flow; 2.0 mg/kg i.v., 1 min): +2.5%
- Changes(%) of basal values, coronary sinus out flow (coronary sinus out flow; 2.0 mg/kg i.v., 5 min): -0.8%
- Changes(%) of basal values, coronary sinus out flow (coronary sinus out flow; 2.0 mg/kg i.v., 10 min): -1.0%
- Changes(%) of basal values, coronary sinus out flow (coronary sinus out flow; 2.0 mg/kg i.v., 20 min): -0.3%
- Changes(%) of basal values, coronary sinus out flow (coronary sinus out flow; 2.0 mg/kg i.v., 30 min): 0%
- Changes(%) of basal values, coronary sinus out flow (coronary sinus out flow; 2.0 mg/kg i.v., 40 min): 0%
- Changes(%) of basal values, coronary sinus out flow (coronary sinus out flow; 2.0 mg/kg i.v., imm.): +7.8%
- Changes(%) of basal values, coronary sinus out flow (coronary sinus out flow; 6.0 mg/kg i.v., 1 min): +24.3%
- Changes(%) of basal values, coronary sinus out flow (coronary sinus out flow; 6.0 mg/kg i.v., 5 min): +4.2%
- Changes(%) of basal values, coronary sinus out flow (coronary sinus out flow; 6.0 mg/kg i.v., 10 min): +3.3%
- Changes(%) of basal values, coronary sinus out flow (coronary sinus out flow; 6.0 mg/kg i.v., 20 min): +2.3%
- Changes(%) of basal values, coronary sinus out flow (coronary sinus out flow; 6.0 mg/kg i.v., 30 min): +1.5%
- Changes(%) of basal values, coronary sinus out flow (coronary sinus out flow; 6.0 mg/kg i.v., 40 min): +1.1%
- Changes(%) of basal values, coronary sinus out flow (coronary sinus out flow; 6.0 mg/kg i.v., imm.): +51.3%
- Changes(%) of basal values, coronary sinus out flow (coronary sinus out flow; 20.0 mg/kg i.v., 1 min): +64.3%
- Changes(%) of basal values, coronary sinus out flow (coronary sinus out flow; 20.0 mg/kg i.v., 5 min): +14.7%
- Changes(%) of basal values, coronary sinus out flow (coronary sinus out flow; 20.0 mg/kg i.v., 10 min): +15.8%
- Changes(%) of basal values, coronary sinus out flow (coronary sinus out flow; 20.0 mg/kg i.v., 20 min): +15.4%
- Changes(%) of basal values, coronary sinus out flow (coronary sinus out flow; 20.0 mg/kg i.v., 30 min): +12.1%
- Changes(%) of basal values, coronary sinus out flow (coronary sinus out flow; 20.0 mg/kg i.v., 40 min): +9.8%
- Changes(%) of basal values, coronary sinus out flow (coronary sinus out flow; 20.0 mg/kg i.v., imm.): +90.3%
- Effects on coronary sinus out flow (in words) (coronary sinus out flow; i.v., anesthetized dogs): a marked increasing effect on coronary sinus out flow, which was proportioned to doses thereof and of long duration
- Changes(%) of basal values, coronary sinus oxygen tension ([2]; 2.0 mg/kg i.v., 1 min): +4.1%
- Changes(%) of basal values, coronary sinus oxygen tension ([2]; 2.0 mg/kg i.v., 5 min): +1.1%
- Changes(%) of basal values, coronary sinus oxygen tension ([2]; 2.0 mg/kg i.v., 10 min): +0.5%
- Changes(%) of basal values, coronary sinus oxygen tension ([2]; 2.0 mg/kg i.v., 20 min): 0%
- Changes(%) of basal values, coronary sinus oxygen tension ([2]; 2.0 mg/kg i.v., 30 min): 0%
- Changes(%) of basal values, coronary sinus oxygen tension ([2]; 2.0 mg/kg i.v., 40 min): 0%
- Changes(%) of basal values, coronary sinus oxygen tension ([2]; 2.0 mg/kg i.v., imm.): +8.3%
- Changes(%) of basal values, coronary sinus oxygen tension ([2]; 6.0 mg/kg i.v., 1 min): +27.0%
- Changes(%) of basal values, coronary sinus oxygen tension ([2]; 6.0 mg/kg i.v., 5 min): +8.0%
- Changes(%) of basal values, coronary sinus oxygen tension ([2]; 6.0 mg/kg i.v., 10 min): +8.5%
- Changes(%) of basal values, coronary sinus oxygen tension ([2]; 6.0 mg/kg i.v., 20 min): +4.2%
- Changes(%) of basal values, coronary sinus oxygen tension ([2]; 6.0 mg/kg i.v., 30 min): +2.5%
- Changes(%) of basal values, coronary sinus oxygen tension ([2]; 6.0 mg/kg i.v., 40 min): +0.8%
- Changes(%) of basal values, coronary sinus oxygen tension ([2]; 6.0 mg/kg i.v., imm.): +29.7%
- Changes(%) of basal values, coronary sinus oxygen tension ([2]; 20.0 mg/kg i.v., 1 min): +39.2%
- Changes(%) of basal values, coronary sinus oxygen tension ([2]; 20.0 mg/kg i.v., 5 min): +20.4%
- Changes(%) of basal values, coronary sinus oxygen tension ([2]; 20.0 mg/kg i.v., 10 min): +16.6%
- Changes(%) of basal values, coronary sinus oxygen tension ([2]; 20.0 mg/kg i.v., 20 min): +20.8%
- Changes(%) of basal values, coronary sinus oxygen tension ([2]; 20.0 mg/kg i.v., 30 min): +20.2%
- Changes(%) of basal values, coronary sinus oxygen tension ([2]; 20.0 mg/kg i.v., 40 min): +19.8%
- Changes(%) of basal values, coronary sinus oxygen tension ([2]; 20.0 mg/kg i.v., imm.): +46.2%
- Effects on coronary sinus oxygen tension (in words) ([2]; i.v., anesthetized dogs): a significant increase in coronary sinus oxygen tension, effect of which was of long duration
- Changes(%) of basal values, heart rate (heart rate; 2.0 mg/kg i.v., 1 min): -0.2%
- Changes(%) of basal values, heart rate (heart rate; 2.0 mg/kg i.v., 5 min): -0.6%
- Changes(%) of basal values, heart rate (heart rate; 2.0 mg/kg i.v., 10 min): -1.3%
- Changes(%) of basal values, heart rate (heart rate; 2.0 mg/kg i.v., 20 min): 0%
- Changes(%) of basal values, heart rate (heart rate; 2.0 mg/kg i.v., 30 min): 0%
- Changes(%) of basal values, heart rate (heart rate; 2.0 mg/kg i.v., 40 min): 0%
- Changes(%) of basal values, heart rate (heart rate; 2.0 mg/kg i.v., imm.): -2.9%
- Changes(%) of basal values, heart rate (heart rate; 6.0 mg/kg i.v., 1 min): -0.9%
- Changes(%) of basal values, heart rate (heart rate; 6.0 mg/kg i.v., 5 min): -3.7%
- Changes(%) of basal values, heart rate (heart rate; 6.0 mg/kg i.v., 10 min): -1.4%
- Changes(%) of basal values, heart rate (heart rate; 6.0 mg/kg i.v., 20 min): -1.3%
- Changes(%) of basal values, heart rate (heart rate; 6.0 mg/kg i.v., 30 min): -0.8%
- Changes(%) of basal values, heart rate (heart rate; 6.0 mg/kg i.v., 40 min): -0.6%
- Changes(%) of basal values, heart rate (heart rate; 6.0 mg/kg i.v., imm.): -9.1%
- Changes(%) of basal values, heart rate (heart rate; 20.0 mg/kg i.v., 1 min): -1.0%
- Changes(%) of basal values, heart rate (heart rate; 20.0 mg/kg i.v., 5 min): -7.8%
- Changes(%) of basal values, heart rate (heart rate; 20.0 mg/kg i.v., 10 min): -9.1%
- Changes(%) of basal values, heart rate (heart rate; 20.0 mg/kg i.v., 20 min): -7.9%
- Changes(%) of basal values, heart rate (heart rate; 20.0 mg/kg i.v., 30 min): -7.1%
- Changes(%) of basal values, heart rate (heart rate; 20.0 mg/kg i.v., 40 min): -6.6%
- Changes(%) of basal values, heart rate (heart rate; 20.0 mg/kg i.v., imm.): -16.8%
- Effects on heart rate (in words) (heart rate; i.v., anesthetized dogs): a slight negative chronotropic effect
